The results in this text go back to patent US10214546B2, “Btk inhibitors” (MERCK SHARP & DOHME CORP., priority 2014, dated 2019).

Structures are written as SMILES. Read-outs that look alike come from different tables or passages of the source.

The target of assay [1] is BTK enzyme (recombinant full-length BTK, hBTK) (Homo sapiens (Human), UniProt Q06187). Nature of the assay: BTK enzymatic activity LANCE TR-FRET assay. It is filed as biochemical. The note with it: 50 pM hBTK, 25 μM ATP, 2 μM biotin-A5-peptide; compound range 1 μM to 0.017 nM; read-out: BTK binding IC50.
Sequence of BTK enzyme (recombinant full-length BTK, hBTK) (Q06187 whole entry): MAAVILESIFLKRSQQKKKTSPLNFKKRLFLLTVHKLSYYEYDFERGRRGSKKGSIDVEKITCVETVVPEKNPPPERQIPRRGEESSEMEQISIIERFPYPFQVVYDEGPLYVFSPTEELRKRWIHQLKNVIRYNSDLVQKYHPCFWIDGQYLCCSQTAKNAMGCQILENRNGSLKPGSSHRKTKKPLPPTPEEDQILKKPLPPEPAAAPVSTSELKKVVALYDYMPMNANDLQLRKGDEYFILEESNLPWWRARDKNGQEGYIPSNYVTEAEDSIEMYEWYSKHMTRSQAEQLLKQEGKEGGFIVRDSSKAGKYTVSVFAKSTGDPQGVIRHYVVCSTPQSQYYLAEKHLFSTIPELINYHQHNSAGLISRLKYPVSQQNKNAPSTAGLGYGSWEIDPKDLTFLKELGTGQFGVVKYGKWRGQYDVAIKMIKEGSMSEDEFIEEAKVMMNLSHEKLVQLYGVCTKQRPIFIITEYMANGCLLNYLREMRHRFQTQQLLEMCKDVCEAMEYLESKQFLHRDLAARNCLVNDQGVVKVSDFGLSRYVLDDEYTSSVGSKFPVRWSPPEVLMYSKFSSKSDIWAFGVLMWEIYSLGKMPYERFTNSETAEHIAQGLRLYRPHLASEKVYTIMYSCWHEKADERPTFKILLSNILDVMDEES
Assay [2] relates to adenosine uptake into HeLa cells. Nature of the assay: [3H]Adenosine uptake assay in HeLa cells. It counts as cell-based. The note with it: compound range 10 μM to 0.032 nM. An outline of the steps:
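IC50 came from a 4-parameter fit of counts per second over a ten-point, 1:3 titration (final 10 µM down to […]). Compound was applied 30 min at ambient temperature in HBSS/5% FBS before a 500 nM [3H]adenosine solution was added; uptake ran 60 min, read by Cytostar-T proximity scintillation.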

The mark [3] stands for this setting: Homo sapiens, HeLa, [3H]adenosine accumulation in HeLa cells, read-out: ADU inhibition IC50.
Where [4] appears, read: [3H]adenosine accumulation in HeLa cells, read-out: ADU inhibition IC50.
The mark [5] stands for this setting: Homo sapiens, HeLa, read-out: ADU inhibition IC50 (nM), [3H]adenosine accumulation in HeLa cells.

As to `Cc1ccc(C(F)(F)F)cc1C(O)c1ccc(-c2nc([C@@H]3CC[C@H]4CCC(=O)N4C3)n3ccnc(N)c23)cc1` (stereo partly drawn) [Example 127, (6R,8aS)-6-[8-amino-1-(4-{hydroxy[2-methyl-5-(trifluoromethyl)phenyl]methyl}phenyl)imidazo [1,5-a]pyrazin-3-yl]hexahydroindolizin-3(2H)-one], the IC50 stood at 459 nM in assay [1] and 2140 nM in assay [2] (setting [3]).
Consider `Nc1nccn2c([C@@H]3CC[C@H]4CCC(=O)N4C3)nc(-c3ccc(C(O)c4cc(C(F)(F)F)ccc4F)cc3)c12` (stereo partly shown) [Example 128], for which the IC50 was determined as 12.4 nM in assay [1] and 1470 nM in assay [2] (setting [4]).
`Nc1ncc(Cl)n2c([C@@H]3CC[C@H]4CCC(=O)N4C3)nc(-c3ccc(C(O)c4cc(C(F)(F)F)ccc4F)cc3)c12` (stereo partly drawn) [Example 129, (6R,8aS)-6-[8-amino-5-chloro-1-(4-{[2-fluoro-5-(trifluoromethyl)phenyl] (hydroxy)methyl}phenyl)imidazo[1,5-a]pyrazin-3-yl]hexahydroindolizin-3(2H)-one]: the IC50 in assay [1] turned out to be 12.2 nM; in assay [2] (setting [4]) it was 1660 nM.
The matching figures for `Cc1ccc(C(F)(F)F)cc1C(O)c1ccc(-c2nc([C@@H]3CC[C@H]4CCC(=O)N4C3)n3ccnc(N)c23)cc1` (stereo partly drawn) [Example 130, (6R,8aS)-6-[8-amino-1-(4-{hydroxy[2-methyl-5-(trifluoromethyl)phenyl]methyl}phenyl)imidazo [1,5-a]pyrazin-3-yl]hexahydroindolizin-3(2H)-one]: 12.7 nM and 1440 nM.
On to `CC(F)(F)c1cccc([C@@](C)(O)c2ccc(-c3nc([C@@H]4CC[C@H]5CCC(=O)N5C4)n4ccnc(N)c34)cc2)c1` [Example 131, (6R,8aS)-6-[8-amino-1-(4-{(1S)-1-[3-(1,1-difluoroethyl)phenyl]-1-hydroxyethyl}phenyl)imidazo[1,5-a]pyrazin-3-yl]hexahydroindolizin-3(2H)-one], for which the concentration for half-maximal inhibition (IC50) in assay [1] came to 64.4 nM; in assay [2] (setting [3]) it was 436 nM.
The matching figures for `CC(F)(F)c1cccc([C@](C)(O)c2ccc(-c3nc([C@@H]4CC[C@H]5CCC(=O)N5C4)n4ccnc(N)c34)cc2)c1` [Example 132, (6R,8aS)-6-[8-amino-1-(4-{(1R)-1-[3-(1,1-difluoroethyl)phenyl]-1-hydroxyethyl}phenyl)imidazo[1,5-a]pyrazin-3-yl]hexahydroindolizin-3(2H)-one]: 0.3 nM and 2950 nM.
The matching figures for `C[C@](O)(c1ccc(-c2nc([C@@H]3CC[C@H]4CCC(=O)N4C3)n3c(Cl)cnc(N)c23)cc1)c1cccc(C(F)F)c1` [Example 133, (6R,8aS)-6-[8-amino-5-chloro-1-(4-{(1S)-1-[3-(difluoromethyl)phenyl]-1-hydroxyethyl}phenyl)imidazo[1,5-a]pyrazin-3-yl]hexahydroindolizin-3(2H)-one]: 118 nM and 460 nM.
On the same counts, the results for `C[C@@](O)(c1ccc(-c2nc([C@@H]3CC[C@H]4CCC(=O)N4C3)n3c(Cl)cnc(N)c23)cc1)c1cccc(C(F)F)c1` [Example 134, (6R,8aS)-6-[8-amino-5-chloro-1-(4-{(1R)-1-[3-(difluoromethyl)phenyl]-1-hydroxyethyl}phenyl)imidazo[1,5-a]|pyrazin-3-yl]hexahydroindolizin-3(2H)-one] are 0.14 nM and 2330 nM.
For `C[C@](O)(c1ccc(-c2nc([C@@H]3CC[C@H]4CCC(=O)N4C3)n3ccnc(N)c23)cc1)c1cncc(C(F)(F)F)c1` [Example 135, (6R,8aS)-6-[8-amino-1-(4-{(1S)-1-hydroxy-1-[5-(trifluoromethyl)pyridin-3-yl]ethyl}phenyl)imidazo [1,5-a]pyrazin-3-yl]hexahydroindolizin-3(2H)-one], the results for the IC50 in assay [1] and in assay [2] (setting [3]) were 1000 nM and 973 nM, respectively.
The matching figures for `C[C@@](O)(c1ccc(-c2nc([C@@H]3CC[C@H]4CCC(=O)N4C3)n3ccnc(N)c23)cc1)c1cncc(C(F)(F)F)c1` [Example 136, (6R,8aS)-6-[8-amino-1-(4-{(1R)-1-hydroxy-1-[5-(trifluoromethyl)pyridin-3-yl]ethyl}phenyl)imidazo [1,5-a]pyrazin-3-yl]hexahydroindolizin-3(2H)-one]: 87.6 nM and 4620 nM.
On the same counts, the results for `C[C@](O)(c1ccc(-c2nc([C@@H]3CC[C@H]4CCC(=O)N4C3)n3ccnc(N)c23)cc1)c1cccc(C(F)(F)F)n1` [Example 137, (6R,8aS)-6-[8-amino-1-(4-{(1S)-1-hydroxy-1-[6-(trifluoromethyl)pyridin-2-yl]ethyl}phenyl)imidazo [1,5-a]pyrazin-3-yl]hexahydroindolizin-3(2H)-one] are 876 nM and 865 nM.
The matching figures for `C[C@@](O)(c1ccc(-c2nc([C@@H]3CC[C@H]4CCC(=O)N4C3)n3ccnc(N)c23)cc1)c1cccc(C(F)(F)F)n1` [Example 138, (6R,8aS)-6-[8-amino-1-(4-{(1R)-1-hydroxy-1-[6-(trifluoromethyl)pyridin-2-yl]ethyl}phenyl)imidazo [1,5-a]pyrazin-3-yl]hexahydroindolizin-3(2H)-one]: 25 nM and 4760 nM.
Turning to `CC(F)(F)c1cccc([C@@](C)(O)c2ccc(-c3nc([C@@H]4CC[C@H]5CCC(=O)N5C4)n4c(Cl)cnc(N)c34)cc2)c1` [Example 139, (6R,8aS)-6-[8-amino-5-chloro-1-(4-{(1S)-1-[3-(1,1-difluoroethyl)phenyl]-1-hydroxyethyl}phenyl)imidazo[1,5-a]pyrazin-3-yl]hexahydroindolizin-3(2H)-one], the 50% inhibitory concentration (IC50) in assay [1] is 24.9 nM; in assay [2] (setting [5]) it was 449 nM.
Take `CC(F)(F)c1cccc([C@](C)(O)c2ccc(-c3nc([C@@H]4CC[C@H]5CCC(=O)N5C4)n4c(Cl)cnc(N)c34)cc2)c1` [Example 140]: the half-inhibitory concentration (IC50) in assay [1] was 0.22 nM; in assay [2] (setting [5]), 1200 nM.
Regarding `COc1cc([C@@](C)(O)c2cccc(C(F)(F)F)c2)ccc1-c1nc([C@@H]2CC[C@H]3CCC(=O)N3C2)n2ccnc(N)c12` [Example 141, (6R,8aS)-6-[8-amino-1-(4-{(1S)-1-hydroxy-1-[3-(trifluoromethyl)phenyl]ethyl}-2-methoxyphenyl)imidazo [1,5-a]pyrazin-3-yl]hexahydroindolizin-3(2H)-one], the IC50 was 93.8 nM in assay [1] and 1980 nM in assay [2] (setting [3]).
The matching figures for `COc1cc([C@](C)(O)c2cccc(C(F)(F)F)c2)ccc1-c1nc([C@@H]2CC[C@H]3CCC(=O)N3C2)n2ccnc(N)c12` [Example 142, (6R,8aS)-6-[8-amino-1-(4-{(1R)-1-hydroxy-1-[3-(trifluoromethyl)phenyl]ethyl}-2-methoxyphenyl)imidazo [1,5-a]pyrazin-3-yl]hexahydroindolizin-3(2H)-one]: 2 nM and 7160 nM.
For the compound `CC(O)(c1ccc(-c2nc([C@@H]3CC[C@H]4CCC(=O)N4C3)n3ccnc(N)c23)cc1)C1CC2CCC1CC2` (stereo partly drawn) [Example 143, (6R,8aS)-6-{8-amino-1-[4-(1-bicyclo[2.2.2]oct-2-yl-1-hydroxyethyl)phenyl]imidazo[1,5-a]pyrazin-3-yl}hexahydroindolizin-3(2H)-one], the IC50 in assay [1] is 900 nM; in assay [2] (setting [4]), 839 nM.
The matching figures for `CC(O)(c1ccc(-c2nc([C@@H]3CC[C@H]4CCC(=O)N4C3)n3ccnc(N)c23)cc1)c1cccc(OC(F)F)c1` (stereo partly drawn) [Example 144, (6R,8aS)-6-[8-amino-1-(4-{1-[3-(difluoromethoxy)phenyl]-1-hydroxyethyl}phenyl)imidazo[1,5-a]pyrazin-3-yl]hexahydroindolizin-3(2H)-one]: 67.6 nM and 985 nM.
For `CC(O)(c1ccc(-c2nc([C@@H]3CC[C@H]4CCC(=O)N4C3)n3ccnc(N)c23)cc1)c1cc(C(F)(F)F)ccc1F` (stereo partly drawn) [Example 145, (6R,8aS)-6-[8-amino-1-(4-{1-[2-fluoro-5-(trifluoromethyl)phenyl]-1-hydroxyethyl}phenyl)imidazo[1,5-a]pyrazin-3-yl]hexahydroindolizin-3(2H)-one], the IC50 in assay [1] came out at 1000 nM; in assay [2] (setting [3]), 1220 nM.
On the same counts, the results for `CC(O)(c1ccc(-c2nc([C@@H]3CC[C@H]4CCC(=O)N4C3)n3ccnc(N)c23)cc1)c1cc(C(F)(F)F)cc(C(F)(F)F)c1` (stereo partly drawn) [Example 146, (6R,8aS)-6-[8-amino-1-(4-{1-[3,5-bis(trifluoromethyl)phenyl]-1-hydroxyethyl}phenyl)imidazo[1,5-a]pyrazin-3-yl]hexahydroindolizin-3(2H)-one] are 752 nM and 1490 nM.
`CC(O)(c1ccc(-c2nc([C@@H]3CC[C@H]4CCC(=O)N4C3)n3ccnc(N)c23)cc1)C1CC2CCC1CC2` (stereo partly drawn) [Example 147, (6R,8aS)-6-{8-amino-1-[4-(1-bicyclo[2.2.2]oct-2-yl-1-hydroxyethyl)phenyl]imidazo[1,5-a]pyrazin-3-yl}hexahydroindolizin-3(2H)-one]: the 50% inhibitory concentration (IC50) in assay [1] was determined as 26.2 nM; in assay [2] (setting [4]) it was 3830 nM.
In the case of `CC(O)(c1ccc(-c2nc([C@@H]3CC[C@H]4CCC(=O)N4C3)n3ccnc(N)c23)cc1)c1cccc(OC(F)F)c1` (stereo partly drawn) [Example 148, (6R,8aS)-6-[8-amino-1-(4-{1-[3-(difluoromethoxy)phenyl]-1-hydroxyethyl}phenyl)imidazo[1,5-a]pyrazin-3-yl]hexahydroindolizin-3(2H)-one], the half-maximal inhibitory concentration (IC50) was 0.2 nM in assay [1] and 2990 nM in assay [2] (setting [4]).
The matching figures for `CC(O)(c1ccc(-c2nc([C@@H]3CC[C@H]4CCC(=O)N4C3)n3ccnc(N)c23)cc1)C1CC2CCC1CC2` (stereo partly drawn) [Example 149, (6R,8aS)-6-{8-amino-1-[4-(1-bicyclo[2.2.2]oct-2-yl-1-hydroxyethyl)phenyl]imidazo[1,5-a]pyrazin-3-yl}hexahydroindolizin-3(2H)-one]: 888 nM and 701 nM.
